According to paper PMC8217813, “Bridging Computational Vaccinology and Vaccine Development Through Systematic Identification, Characterization, and Downselection of Conserved and Variable Circumsporozoite Protein CD4 T Cell Epitopes From Diverse Plasmodium falciparum Strains” (Frontiers in Immunology, 2021):

Tested on: CD4 T cells co-cultured with autologous DCs from PBMCs
Assay type: cell-based, human
Settings: positive = Stimulation Index ≥1.5-fold above baseline, 5 µg/mL peptide

## IKKYLKKIKNSISTEWSPCS [ICS6]
DR1 donors N=5, ICCS after 14-day co-culture
  Percentage of donors demonstrating IFN-γ responses, DR1: 20%
DR1 donors N=5, ICCS
  Percentage of donors demonstrating IL-2 responses, DR1: 20%
  Percentage of donors demonstrating IL-4 responses, DR1: 0%
  Percentage of donors demonstrating IL-10 responses, DR1: 20%
  Percentage of donors demonstrating TNF-α responses, DR1: 20%
DR3 donors N=6, ICCS after 14-day co-culture
  Percentage of donors demonstrating IFN-γ responses, DR3: 50%
DR3 donors N=6, ICCS
  Percentage of donors demonstrating IL-2 responses, DR3: 33%
  Percentage of donors demonstrating IL-4 responses, DR3: 0%
  Percentage of donors demonstrating IL-10 responses, DR3: 17%
  Percentage of donors demonstrating TNF-α responses, DR3: 33%
DR4 donors N=10, ICCS after 14-day co-culture
  Percentage of donors demonstrating IFN-γ responses, DR4: 40%
DR4 donors N=10, ICCS
  Percentage of donors demonstrating IL-2 responses, DR4: 30%
  Percentage of donors demonstrating IL-4 responses, DR4: 0%
  Percentage of donors demonstrating IL-10 responses, DR4: 30%
  Percentage of donors demonstrating TNF-α responses, DR4: 30%
DR7 donors N=4, ICCS after 14-day co-culture
  Percentage of donors demonstrating IFN-γ responses, DR7: 50%
DR7 donors N=4, ICCS
  Percentage of donors demonstrating IL-2 responses, DR7: 50%
  Percentage of donors demonstrating IL-4 responses, DR7: 0%
  Percentage of donors demonstrating IL-10 responses, DR7: 50%
  Percentage of donors demonstrating TNF-α responses, DR7: 25%
DR8 donors N=4, ICCS after 14-day co-culture
  Percentage of donors demonstrating IFN-γ responses, DR8: 25%
DR8 donors N=4, ICCS
  Percentage of donors demonstrating IL-2 responses, DR8: 0%
  Percentage of donors demonstrating IL-4 responses, DR8: 0%
  Percentage of donors demonstrating IL-10 responses, DR8: 0%
  Percentage of donors demonstrating TNF-α responses, DR8: 0%
DR9 donors N=4, ICCS after 14-day co-culture
  Percentage of donors demonstrating IFN-γ responses, DR9: 50%
DR9 donors N=4, ICCS
  Percentage of donors demonstrating IL-2 responses, DR9: 50%
  Percentage of donors demonstrating IL-4 responses, DR9: 25%
  Percentage of donors demonstrating IL-10 responses, DR9: 25%
  Percentage of donors demonstrating TNF-α responses, DR9: 50%
DR11 donors N=4, ICCS after 14-day co-culture
  Percentage of donors demonstrating IFN-γ responses, DR11: 50%
DR11 donors N=4, ICCS
  Percentage of donors demonstrating IL-2 responses, DR11: 25%
  Percentage of donors demonstrating IL-4 responses, DR11: 0%
  Percentage of donors demonstrating IL-10 responses, DR11: 25%
  Percentage of donors demonstrating TNF-α responses, DR11: 50%
DR13 donors N=7, ICCS after 14-day co-culture
  Percentage of donors demonstrating IFN-γ responses, DR13: 43%
DR13 donors N=7, ICCS
  Percentage of donors demonstrating IL-2 responses, DR13: 29%
  Percentage of donors demonstrating IL-4 responses, DR13: 0%
  Percentage of donors demonstrating IL-10 responses, DR13: 0%
  Percentage of donors demonstrating TNF-α responses, DR13: 43%
DR15 donors N=7, ICCS after 14-day co-culture
  Percentage of donors demonstrating IFN-γ responses, DR15: 43%
DR15 donors N=7, ICCS
  Percentage of donors demonstrating IL-2 responses, DR15: 29%
  Percentage of donors demonstrating IL-4 responses, DR15: 14%
  Percentage of donors demonstrating IL-10 responses, DR15: 43%
  Percentage of donors demonstrating TNF-α responses, DR15: 43%
